Measured values as given in the CheMixHub viscosity set.

Assay: xn = mol fraction of the nth substance listed

CC(=O)OCc1ccccc1 + Cc1ccccc1C
viscosity [mPa·s], 101 kPa
Conditions	x1 = 0.0897	x1 = 0.1695	x1 = 0.2706	x1 = 0.3684	x1 = 0.4671	x1 = 0.562	x1 = 0.6623	x1 = 0.7598	x1 = 0.8617	x1 = 0.9299
303.15 K	0.751	0.802	0.873	0.957	1.047	1.142	1.252	1.361	1.478	1.563
313.15 K	0.671	0.72	0.783	0.845	0.909	0.976	1.054	1.135	1.224	1.285

ClC(Cl)Cl + CCCCCCCCO
viscosity [mPa·s], 101 kPa
Conditions	303.15 K	313.15 K
x1 = 0.0471	5.924	4.259
x1 = 0.0996	5.36	3.883
x1 = 0.149	4.852	3.545
x1 = 0.1997	4.346	3.212
x1 = 0.2493	3.898	2.902
x1 = 0.3001	3.475	2.593
x1 = 0.3529	3.039	2.315
x1 = 0.4037	2.666	2.07
x1 = 0.4548	2.332	1.823
x1 = 0.5001	2.062	1.648
x1 = 0.555	1.772	1.426
x1 = 0.5995	1.552	1.273
x1 = 0.6467	1.37	1.134
x1 = 0.7001	1.171	0.987
x1 = 0.7484	1.036	0.883
x1 = 0.7997	0.929	0.769
x1 = 0.8451	0.804	0.704
x1 = 0.9007	0.693	0.627
x1 = 0.9494	0.616	0.555

ClC(Cl)Cl + Cc1ccc(C)cc1
298.15 K, 101 kPa
Conditions	viscosity [mPa·s]
x1 = 0.4429	0.6167
x1 = 0.5074	0.6102
x1 = 0.5571	0.6084
x1 = 0.5997	0.6031
x1 = 0.6505	0.6003
x1 = 0.6897	0.5954
x1 = 0.7351	0.5903

ClC(Cl)Cl + CN(C)C=O
viscosity [mPa·s], 101 kPa
Conditions	293.15 K	303.15 K	313.15 K	323.15 K
x2 = 0.0512	0.7325	0.6616	0.6031	–
x2 = 0.1011	0.7913	0.7089	0.636	0.5823
x2 = 0.1954	0.9132	0.8102	–	0.6447
x2 = 0.1955	–	–	0.7206	–
x2 = 0.2975	1.025	0.901	0.7977	0.7077
x2 = 0.392	1.095	0.9598	0.8479	0.7408
x2 = 0.5008	1.128	0.9894	0.8735	0.7803
x2 = 0.5983	1.123	0.9851	0.8753	0.7856
x2 = 0.6918	1.091	0.9617	0.8556	0.7692
x2 = 0.7851	1.051	0.9294	0.8306	0.7493
x2 = 0.8951	0.9944	–	0.7921	0.7179
x2 = 0.8952	–	0.8835	–	–

CCCCCCCCCC(=O)OC + CCCCCCCCCCC
viscosity [mPa·s], 100 kPa
Conditions	x2 = 0.0986	x2 = 0.1998	x2 = 0.2992	x2 = 0.3988	x2 = 0.4974	x2 = 0.5994	x2 = 0.6999	x2 = 0.7993	x2 = 0.899
293.15 K	1.97	1.831	1.717	1.611	1.516	1.425	1.342	1.272	1.219
298.15 K	1.783	1.662	1.559	1.468	1.386	1.306	1.234	1.169	1.124
303.15 K	1.625	1.517	1.427	1.344	1.268	1.198	1.137	1.08	1.039
308.15 K	1.487	1.392	1.311	1.237	1.171	1.109	1.053	1.002	0.964
313.15 K	1.368	1.283	1.211	1.145	1.083	1.029	0.978	0.932	0.897
318.15 K	1.264	1.187	1.122	1.062	1.007	0.958	0.912	0.871	0.838
323.15 K	1.172	1.102	1.044	0.99	0.939	0.894	0.853	0.815	0.786

CCCCCCCCCCCCCCCC + CCCCCCCC
Conditions	viscosity [mPa·s]
298.15 K, 101.33 kPa, x2 = 0.1039	2.656
298.15 K, 101.33 kPa, x2 = 0.2122	2.305
298.15 K, 101.33 kPa, x2 = 0.3109	1.973
298.15 K, 101.33 kPa, x2 = 0.4114	1.682
298.15 K, 101.33 kPa, x2 = 0.5033	1.452
298.15 K, 101.33 kPa, x2 = 0.6068	1.205
298.15 K, 101.33 kPa, x2 = 0.7096	0.982
298.15 K, 101.33 kPa, x2 = 0.8067	0.7957
298.15 K, 101.33 kPa, x2 = 0.9049	0.6421
318.16 K, 101 kPa, x1 = 0.15	0.5758
318.16 K, 101 kPa, x1 = 0.3499	0.8378
318.16 K, 101 kPa, x1 = 0.5001	1.073
318.16 K, 101 kPa, x1 = 0.6398	1.317
318.16 K, 101 kPa, x1 = 0.7996	1.627

OCC(F)(F)C(F)(F)F + O
viscosity [mPa·s], 100 kPa
Conditions	x1 = 0.5504	x1 = 0.6564	x1 = 0.7892	x1 = 0.8991
298.15 K	2.607	2.626	2.774	3.069
323.15 K	1.263	1.278	1.318	1.401

O=CC(Cl)(Cl)Cl + O
323.15 K, 101 kPa
Conditions	viscosity [mPa·s]
x1 = 0.05	1.031
x1 = 0.1	1.731
x1 = 0.15	2.671
x1 = 0.2	4.156
x1 = 0.25	5.987
x1 = 0.3	8.751
x1 = 0.35	11.36
x1 = 0.4	14.33
x1 = 0.425	15.57
x1 = 0.45	16.37
x1 = 0.465	17.06
x1 = 0.475	17.38
x1 = 0.49	17.26
x1 = 0.5	16.72
x1 = 0.55	14.07
x1 = 0.6	11.39
x1 = 0.7	5.695
x1 = 0.8	2.681
x1 = 0.9	1.447

Cc1ccc(S(=O)(=O)[O-])cc1.O=C1CCC[NH+]1C1CCCCC1 + O
viscosity [mPa·s], 101 kPa
Conditions	x1 = 0.002718	x1 = 0.008026	x1 = 0.01073
298.15 K	1.035	–	1.485
303.15 K	–	1.165	–
